The results in this text go back to patent US6686341B1, “Nutritional compositions which contain slightly negatively charged, non-digestible polysaccharides and use thereof for reducing transport through tight junctions” (N.V. Nutricia, priority 1999, dated 2004).

This experiment deals with tight junctions (duodenum biopsies). Kind of experiment: Ussing chamber: HRP permeability of duodenum suction biopsies from children suffering from microvillus inclusion disease. The format is cell-based, human. Conditions: after adding 4.2 g to the luminal compartment. An excerpt:
Suction biopsies of the duodenum were taken from two children suffering from microvillus inclusion disease.

Turning to carboxydextran [70 kD carboxydextran], the “HRP in the paracellular spaces or tight junctions by electron microscopy” value was “No further HRP could be detected”.
